Experimental findings from patent publication US12583826B2, “[(1,5-diphenyl-1H-1,2,4-triazol-3-yl)oxy]acetic acid derivatives and salts thereof, crop protection compositions comprising them, methods for producing them and use thereof as safeners” (Bayer Aktiengesellschaft, priority 2019, dated 2026) are described below.

Assay type in all cases: in vivo
Assay [1] has as its system summer barley (HORVS; cv. Montoya). Briefly: Relative action (efficacy code): reduction of damage by mesosulfuron-methyl on summer barley. The arrangement: key: 0: no reduction in damage (appearance corresponding to the herbicide control); 1: slight reduction in damage; 2: distinct reduction in damage; 3: significant reduction in damage; 4: complete reduction in damage (appearance corresponding to the untreated control). The note with it: then mesosulfuron-methyl 40-60 g/ha, visual, 9-13 days after application. The procedure: 2.4 Relative Action of Selected Compounds of the Invention Using the Example of Reduction of Damage by Mesosulfuron-Methyl on Summer Barley (HORVS) The seeds of the crop plants to be treated are laid out in sandy loam in plastic pots (diameter ˜4 cm), covered with soil and grown in a greenhouse under good conditions for germination and growth. The trial plants were treated at the early leaf stage (BBCH10—BBCH12). In the course of this, the inventive compounds of the general formula (I) formulated in the form of wettable powders (WP) were sprayed onto the above-ground parts of the plants as an aqueous suspension with a water application rate corresponding to 800 l/ha with addition of wetting agent (e.g. 0.2% Genapol-LRO or 0.2% Mero) in the specified dose. This was followed by the application of the herbicide. For this purpose, mesosulfuron-methyl, formulated in the form of water-dispersible granules (WG), was sprayed onto the above-ground parts of the plants in the form of an aqueous dispersion with a water application rate corresponding to 800 l/ha with addition of wetting agent (e.g. 0.2% Genapol-LRC) or 1 l/ha Biopower) in a dose of 40-60 g/ha. The dose of the herbicide was chosen here such that it causes visually apparent damage (min. 30%, max. 75%) compared to untreated crop plants at the evaluation time on a control group of crop plants without safener treatment that were included in the same trial. After application, the plants were cultivated under good growth conditions in a greenhouse. 9-13 days after application, the efficacy of the test compounds was assessed visually. For this purpose, the appearance of the plants treated with the test compound and herbicide was compared to the corresponding herbicide controls (without safener; with clearly visible damage) and the untreated controls (without damage). The damage-reducing effect of the test compounds was expressed here separately for 2 repeats in graded efficacy codes according to the following scheme: • 0: no reduction in damage (appearance corresponding to the herbicide control) • 1: slight reduction in damage • 2: distinct reduction in damage • 3: significant reduction in damage • 4: complete reduction in damage (appearance corresponding to the untreated control) The trials show clear efficacy of the substances of the invention with regard to the reduction in damage to the summer barley crop plant (HORVS; cv. Montoya) caused by the herbicide mesosulfuron-methyl: […]

Assay [2] deals with summer wheat (TRZAS; cv. Triso). Nature of the assay: Absolute action: reduction of damage by mesosulfuron-methyl on summer wheat, greenhouse post-emergence. The note with it: for Absolute reduction in herbicide damage (damage without safener minus damage with safener): mesosulfuron-methyl 20 g/ha; for Herbicide damage with compound of the formula (I): then mesosulfuron-methyl 20 g/ha, visual 0-100% scale, 14-21 days after application. The procedure:
(§1) 2.1 Absolute Action of Selected Compounds of the Invention Using the Example of Reduction of Damage by Mesosulfuron-Methyl on Summer Wheat (TRZAS) The seeds of the crop plants to be treated are laid out in sandy loam in wood fiber or plastic pots (diameter ˜4 cm), covered with soil and grow in a greenhouse under good conditions for germination and growth. The trial plants were treated at the early leaf stage (BBCH10—BBCH12). In the course of this, the inventive compounds of the general formula (I) formulated in the form of wettable powders (WP) were sprayed onto the above-ground parts of the plants as an aqueous suspension with a water application rate corresponding to 800 l/ha with addition of wetting agent (e.g. 0.2% agrotin) in the specified dose. This was followed by the application of the herbicide. For this purpose, mesosulfuron-methyl, formulated in the form of water-dispersible granules (WG), was sprayed onto the above-ground parts of the plants in the form of an aqueous dispersion with a water application rate corresponding to 800 l/ha with addition of wetting agent (e.g. 0.2% agrotin) in a dose of 20 g/ha. The dose of the herbicide was chosen here such that it causes visually apparent damage (min. 30%, max. 75%) compared to untreated crop plants at the evaluation time on a control group of crop plants without safener treatment that were included in the same trial. After application, the plants were cultivated under good growth conditions in a greenhouse. The damage was visually assessed 14-21 days after application. The damage effect was assessed visually on a scale of 0-100% by comparison with untreated control plants, and averaged over 2-3 repeats per treatment. Examples: • 0%=no noticeable effect compared to the untreated plant • 20%=the treated plant population has 20% damage compared to the untreated control population (e.g. growth height, leaf damage, etc.) • 100%=treated plants completely damaged/killed.

For assay [3], the system named is summer barley (HORVS; cv. Montoya). Briefly: Absolute action: reduction of damage by mesosulfuron-methyl on summer barley, greenhouse post-emergence. The note with it: for Absolute reduction in damage (difference): mesosulfuron-methyl 20 g/ha, damage without minus with safener; for Herbicide damage with compound of the formula (I) (%): then mesosulfuron-methyl 20 g/ha, visual 0-100% scale, 14-21 days after application. The procedure:
as §1, with “2.2 Absolute Action” for “2.1 Absolute Action”, “on Summer Barley (HORVS) The seeds” for “on Summer Wheat (TRZAS) The seeds”, “treated are aid out in” for “treated are laid out in”, “soil and grown in a” for “soil and grow in a”, “leaf stage (BBCE10-BBCH12). In the” for “leaf stage (BBCH10—BBCH12). In the”, “control population (e.g.: growth height,” for “control population (e.g. growth height,”

With `O=C(O)COc1nc(-c2c(F)cccc2F)n(-c2ccc(Cl)cc2F)n1` [I.57-49], the “Efficacy of the safener (efficacy code)” value in assay [1] (safener 100 g/ha) and in assay [1] (safener 500 g/ha) was 2 in each case.
Turning to `CCOC(=O)COc1nc(-c2ccc(Cl)cc2F)n(-c2ccc(Cl)cc2F)n1` [I.47-49], in assay [2] (safener 125 g a.i./ha), the “Absolute reduction in herbicide damage (damage without safener minus damage with safener)” value is 30% and the “Herbicide damage with compound of the formula (I)” value worked out at 30%. Moreover, in assay [3] (safener 125 g a.i./ha), the “Absolute reduction in damage (difference)” value is 50% and the “Herbicide damage with compound of the formula (I) (%)” value (shortened to “Herbicide damage with compound … (%)”) is listed as 10%.
Regarding `CCOC(=O)COc1nc(-c2ccc(Cl)cc2Cl)n(-c2ccc(Cl)cc2Cl)n1` [I.44-32], in assay [2] (safener 125 g a.i./ha), the “Absolute reduction in herbicide damage (damage without safener minus damage with safener)” value came out at 53% and the “Herbicide damage with compound of the formula (I)” value was determined as 10%. Also, in assay [2] (safener 500 g a.i./ha), the “Absolute reduction in herbicide damage (damage without safener minus damage with safener)” value came out at 56% and the “Herbicide damage with compound of the formula (I)” value was 7%. In addition, in assay [3] (safener 125 g a.i./ha), the “Absolute reduction in damage (difference)” value stood at 33% and the “Herbicide damage with compound … (%)” value came out at 27%. Moreover, in assay [3] (safener 500 g a.i./ha), the “Absolute reduction in damage (difference)” value is on record as 47% and the “Herbicide damage with compound … (%)” value is 13%.
Take `O=C(O)COc1nc(-c2ccccc2F)n(-c2ccc(F)cc2F)n1` [I.6-38]: in assay [2] (safener 125 g a.i./ha), the “Absolute reduction in herbicide damage (damage without safener minus damage with safener)” value is 50% and the “Herbicide damage with compound of the formula (I)” value came to 17%. Also, in assay [3] (safener 125 g a.i./ha), the “Absolute reduction in damage (difference)” value is 53% and the “Herbicide damage with compound … (%)” value came out at 20%.
Turning to `O=C(O)COc1nc(-c2ccc(Cl)cc2Cl)n(-c2ccc(F)cc2F)n1` [I.45-38], in assay [2] (safener 125 g a.i./ha), the “Absolute reduction in herbicide damage (damage without safener minus damage with safener)” value is listed as 33% and the “Herbicide damage with compound of the formula (I)” value is given as 30%. Also, in assay [2] (safener 500 g a.i./ha), the “Absolute reduction in herbicide damage (damage without safener minus damage with safener)” value was 43% and the “Herbicide damage with compound of the formula (I)” value is recorded as 20%. Moreover, in assay [3] (safener 125 g a.i./ha), the “Absolute reduction in damage (difference)” value was 30% and the “Herbicide damage with compound … (%)” value turned out to be 30%. Besides, in assay [3] (safener 500 g a.i./ha), the “Absolute reduction in damage (difference)” value is listed as 40% and the “Herbicide damage with compound … (%)” value was determined as 20%.
For the molecule `CCOC(=O)COc1nc(-c2ccc(Cl)cc2F)n(-c2ccc(Cl)cc2Cl)n1` [I.47-32], in assay [2] (safener 125 g a.i./ha), the “Absolute reduction in herbicide damage (damage without safener minus damage with safener)” value is 34% and the “Herbicide damage with compound of the formula (I)” value is recorded as 23%. In assay [2] (safener 500 g a.i./ha), the “Absolute reduction in herbicide damage (damage without safener minus damage with safener)” value was found to be 44% and the “Herbicide damage with compound of the formula (I)” value came out at 13%. Besides, in assay [3] (safener 500 g a.i./ha), the “Absolute reduction in damage (difference)” value turned out to be 47% and the “Herbicide damage with compound … (%)” value amounted to 10%.
Regarding `O=C(O)COc1nc(-c2ccccc2)n(-c2ccc(Cl)cc2)n1` [I.3-7], in assay [2] (safener 250 g/ha), the “Absolute reduction in herbicide damage (damage without safener minus damage with safener)” value came out at 23% and the “Herbicide damage with compound of the formula (I)” value came out at 20%. For the same molecule, in assay [2] (safener 1000 g/ha), the “Absolute reduction in herbicide damage (damage without safener minus damage with safener)” value is reported as 33% and the “Herbicide damage with compound of the formula (I)” value came to 10%. Moreover, in assay [3] (safener 250 g a.i./ha), the “Absolute reduction in damage (difference)” value came to 20% and the “Herbicide damage with compound … (%)” value is 40%.
Take `O=C(O)COc1nc(-c2ccc(Cl)cc2)n(-c2ccc(F)cc2F)n1` [I.21-38]: in assay [2] (safener 1000 g/ha), the “Absolute reduction in herbicide damage (damage without safener minus damage with safener)” value is 23% and the “Herbicide damage with compound of the formula (I)” value was found to be 20%. For the same molecule, in assay [3] (safener 250 g a.i./ha), the “Absolute reduction in damage (difference)” value is 30% and the “Herbicide damage with compound … (%)” value is 30%. In assay [3] (safener 1000 g a.i./ha), the “Absolute reduction in damage (difference)” value came out at 40% and the “Herbicide damage with compound … (%)” value was found to be 20%.
With `CCOC(=O)COc1nc(-c2ccc(Cl)cc2F)n(-c2ccc(F)cc2F)n1` [I.47-38], in assay [2] (safener 125 g a.i./ha), the “Absolute reduction in herbicide damage (damage without safener minus damage with safener)” value was determined as 27% and the “Herbicide damage with compound of the formula (I)” value is 13%. Further, in assay [3] (safener 125 g a.i./ha), the “Absolute reduction in damage (difference)” value is on record as 40% and the “Herbicide damage with compound … (%)” value turned out to be 17%. Moreover, in assay [3] (safener 500 g a.i./ha), the “Absolute reduction in damage (difference)” value is 47% and the “Herbicide damage with compound … (%)” value stood at 10%.
In the case of `COC(=O)COc1nc(-c2ccccc2F)n(-c2ccc(F)cc2F)n1` [I.4-38], in assay [2] (safener 125 g a.i./ha), the “Absolute reduction in herbicide damage (damage without safener minus damage with safener)” value came to 27% and the “Herbicide damage with compound of the formula (I)” value is 30%. Further, in assay [3] (safener 500 g a.i./ha), the “Absolute reduction in damage (difference)” value turned out to be 50% and the “Herbicide damage with compound … (%)” value is 7%.
As to `O=C(O)COc1nc(-c2ccc(F)cc2F)n(-c2ccc(Cl)cc2)n1` [I.42-7, {[1-(4-Chlorophenyl)-5-(2,4-difluorophenyl)-1H-1,2,4-triazol-3-yl]oxy}acetic acid], in assay [2] (safener 250 g/ha), the “Absolute reduction in herbicide damage (damage without safener minus damage with safener)” value amounted to 43% and the “Herbicide damage with compound of the formula (I)” value was 0%. In addition, in assay [3] (safener 250 g a.i./ha), the “Absolute reduction in damage (difference)” value worked out at 60% and the “Herbicide damage with compound … (%)” value was 0%.
